Measurements taken from ChEMBL document CHEMBL1909046, “DrugMatrix in vitro pharmacology data”.

How the values were obtained:
[1] = DRUGMATRIX: Calcium Channel Type L, Dihydropyridine radioligand binding (ligand: [3H] Nitrendipine); type: cell membranes, Rattus norvegicus, Wistar, Cerebral cortex, Membrane; conditions: Not Active = under 50% inhibition at 10 µM
[2] = target: T1, Endothelin-1 receptor (Homo sapiens, UniProt P25101); type: cell membranes, CHO-K1, Membrane; conditions: cho-k1; also: in other assays of this panel Not Active means under 50% inhibition at 10 µM
T1 sequence (P25101 whole entry): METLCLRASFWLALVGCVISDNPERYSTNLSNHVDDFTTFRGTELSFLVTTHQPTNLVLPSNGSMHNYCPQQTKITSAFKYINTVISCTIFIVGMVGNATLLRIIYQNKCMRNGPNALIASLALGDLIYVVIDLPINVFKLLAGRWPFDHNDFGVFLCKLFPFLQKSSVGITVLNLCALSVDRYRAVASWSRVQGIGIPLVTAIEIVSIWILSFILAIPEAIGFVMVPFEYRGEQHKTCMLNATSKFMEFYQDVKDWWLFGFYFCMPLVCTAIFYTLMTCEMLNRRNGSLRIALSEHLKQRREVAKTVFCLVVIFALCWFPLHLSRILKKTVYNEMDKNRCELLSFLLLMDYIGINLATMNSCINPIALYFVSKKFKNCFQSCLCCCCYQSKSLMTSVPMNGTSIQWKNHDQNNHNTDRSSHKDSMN

[3] = DRUGMATRIX: Imidazoline I2, Central radioligand binding (ligand: [3H] Idazoxan); type: cell membranes, Rattus norvegicus, Wistar, Cerebral cortex, Membrane; conditions: Not Active = under 50% inhibition at 10 µM
[4] = target: Melanocortin receptor 3 (Homo sapiens, UniProt P41968); type: cell membranes, HEK293, Membrane; conditions: hek293; also: in other assays of this panel Not Active means under 50% inhibition at 10 µM
[5] = target: Nitric oxide synthase 1 (Rattus norvegicus, UniProt P29476); type: tissue-based, Cerebellum; also: in other assays of this panel Not Active means under 50% inhibition at 10 µM
[6] = target: T2, Progesterone receptor (Bos taurus, UniProt Q690N0); assay: DRUGMATRIX: Progesterone radioligand binding (ligand: [3H] R-5020); type: tissue-based, Uterus; conditions: Not Active = under 50% inhibition at 10 µM
T2 sequence (Q690N0 whole entry): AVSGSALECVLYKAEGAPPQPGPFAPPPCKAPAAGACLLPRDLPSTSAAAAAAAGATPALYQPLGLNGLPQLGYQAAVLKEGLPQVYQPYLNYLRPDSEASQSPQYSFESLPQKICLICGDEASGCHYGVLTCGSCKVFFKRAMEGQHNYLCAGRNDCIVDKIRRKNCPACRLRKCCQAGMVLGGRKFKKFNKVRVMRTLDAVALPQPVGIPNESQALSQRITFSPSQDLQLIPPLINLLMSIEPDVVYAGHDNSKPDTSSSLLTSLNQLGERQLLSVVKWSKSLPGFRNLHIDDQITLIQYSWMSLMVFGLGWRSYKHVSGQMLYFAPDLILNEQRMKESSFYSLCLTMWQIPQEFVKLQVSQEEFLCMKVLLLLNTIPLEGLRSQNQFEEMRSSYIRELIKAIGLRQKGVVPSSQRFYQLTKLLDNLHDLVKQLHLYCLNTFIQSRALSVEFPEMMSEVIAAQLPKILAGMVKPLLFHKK

Chain of Nitric oxide synthase 1 (P29476 whole entry): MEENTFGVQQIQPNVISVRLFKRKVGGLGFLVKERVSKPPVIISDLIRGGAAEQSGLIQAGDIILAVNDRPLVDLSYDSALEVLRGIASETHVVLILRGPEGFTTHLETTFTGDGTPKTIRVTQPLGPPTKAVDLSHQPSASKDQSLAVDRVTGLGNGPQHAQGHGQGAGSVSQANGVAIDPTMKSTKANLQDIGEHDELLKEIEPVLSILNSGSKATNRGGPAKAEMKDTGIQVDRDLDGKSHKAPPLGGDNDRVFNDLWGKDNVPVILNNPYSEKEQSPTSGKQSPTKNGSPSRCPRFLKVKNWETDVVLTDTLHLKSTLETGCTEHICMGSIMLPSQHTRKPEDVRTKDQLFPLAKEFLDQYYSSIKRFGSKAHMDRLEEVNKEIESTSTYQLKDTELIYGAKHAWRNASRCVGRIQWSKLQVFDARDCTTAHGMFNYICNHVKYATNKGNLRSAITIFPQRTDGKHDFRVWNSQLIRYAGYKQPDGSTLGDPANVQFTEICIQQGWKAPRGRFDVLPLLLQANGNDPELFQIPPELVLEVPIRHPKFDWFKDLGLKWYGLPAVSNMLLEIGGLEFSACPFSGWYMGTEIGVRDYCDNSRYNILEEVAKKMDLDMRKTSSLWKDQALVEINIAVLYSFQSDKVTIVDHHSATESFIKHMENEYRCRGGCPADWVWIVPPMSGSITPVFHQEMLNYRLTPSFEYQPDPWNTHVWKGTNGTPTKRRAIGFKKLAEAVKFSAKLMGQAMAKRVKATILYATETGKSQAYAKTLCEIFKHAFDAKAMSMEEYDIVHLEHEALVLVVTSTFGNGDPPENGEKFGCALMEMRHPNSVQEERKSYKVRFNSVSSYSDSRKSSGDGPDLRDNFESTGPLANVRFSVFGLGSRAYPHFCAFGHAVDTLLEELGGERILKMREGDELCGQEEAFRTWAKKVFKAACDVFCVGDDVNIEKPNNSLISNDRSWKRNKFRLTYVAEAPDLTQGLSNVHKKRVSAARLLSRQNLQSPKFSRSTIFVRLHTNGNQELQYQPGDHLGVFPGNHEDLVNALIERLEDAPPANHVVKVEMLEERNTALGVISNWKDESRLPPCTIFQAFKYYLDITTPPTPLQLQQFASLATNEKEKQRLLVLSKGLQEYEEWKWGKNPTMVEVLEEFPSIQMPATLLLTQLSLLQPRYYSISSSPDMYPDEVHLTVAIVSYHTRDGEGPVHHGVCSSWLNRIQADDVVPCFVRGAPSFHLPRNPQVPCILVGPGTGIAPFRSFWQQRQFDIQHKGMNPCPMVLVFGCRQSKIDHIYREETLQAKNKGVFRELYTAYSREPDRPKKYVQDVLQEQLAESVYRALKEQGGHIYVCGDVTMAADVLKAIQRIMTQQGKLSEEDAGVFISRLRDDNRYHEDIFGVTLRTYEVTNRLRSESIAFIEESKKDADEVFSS
Chain of Melanocortin receptor 3 (P41968 whole entry): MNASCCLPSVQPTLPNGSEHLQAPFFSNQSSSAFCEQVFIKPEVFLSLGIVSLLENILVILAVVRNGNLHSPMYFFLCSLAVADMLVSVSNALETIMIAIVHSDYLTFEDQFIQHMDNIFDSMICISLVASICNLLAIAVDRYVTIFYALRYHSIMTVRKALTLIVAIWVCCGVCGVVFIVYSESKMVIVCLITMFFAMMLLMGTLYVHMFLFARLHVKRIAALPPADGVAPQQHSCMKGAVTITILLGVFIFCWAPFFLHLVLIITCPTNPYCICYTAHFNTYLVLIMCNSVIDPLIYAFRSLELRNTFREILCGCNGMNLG

Compound | IC50 [1] | Ki [1] | IC50 [2] | IC50 ([3]; read-out: IC50) [nM] | Ki ([3]; read-out: Ki) [nM] | IC50 [4] | IC50 [5] | IC50 [6] | IC50 [3] | Ki [3] | Ki [2] | Ki [4] | Ki [5] | Ki [6]
Cc1ccc(N(CC2=NCCN2)c2cccc(O)c2)cc1 [PHENTOLAMINE] | Not Active | Not Active | Not Active | 58 | 39 | Not Active | Not Active | Not Active | – | – | – | – | – | –
CNNCc1ccc(C(=O)NC(C)C)cc1 [PROCARBAZINE] | Not Active | Not Active | Not Active | – | – | Not Active | Not Active | Not Active | Not Active | Not Active | – | – | – | –
CN(C)CCCN1c2ccccc2Sc2ccccc21 [PROMAZINE] | Not Active | Not Active | Not Active | 1100 | 732 | Not Active | Not Active | Not Active | – | – | – | – | – | –
CC(O)CO (stereo not drawn) [PROPYLENE GLYCOL] | Not Active | Not Active | Not Active | – | – | Not Active | Not Active | Not Active | Not Active | Not Active | – | – | – | –
CADMIUM ACETATE | Not Active | Not Active | Not Active | – | – | Not Active | Not Active | Not Active | Not Active | Not Active | Not Active | Not Active | Not Active | Not Active
LEAD (II) ACETATE | Not Active | Not Active | Not Active | – | – | Not Active | Not Active | Not Active | Not Active | Not Active | Not Active | Not Active | Not Active | Not Active
LIPOPOLYSACCHARIDE E. COLI O55:B5 | Not Active | Not Active | Not Active | – | – | Not Active | Not Active | Not Active | Not Active | Not Active | Not Active | Not Active | Not Active | Not Active
